Molecular target: human recombinant H-PGDS (Homo sapiens, UniProt O60760)
Experiment: Fluoresecence Intensity h-PGDSTBA Enzyme Assay
Details: IC50, 5.0 μM PGH2, 2.5 mM L-Glutathione, 10 min preincubation, 4-parameter fit, highest inhibitor concentration typically 1 μM

Chain of human recombinant H-PGDS (O60760 whole entry): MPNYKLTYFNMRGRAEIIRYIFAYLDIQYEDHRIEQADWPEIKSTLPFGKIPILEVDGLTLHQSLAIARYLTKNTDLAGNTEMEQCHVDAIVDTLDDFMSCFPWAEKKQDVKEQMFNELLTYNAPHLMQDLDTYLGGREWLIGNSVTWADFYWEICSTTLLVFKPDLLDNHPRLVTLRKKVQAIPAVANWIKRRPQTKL

Row | IC50 [nM] | Structure (SMILES)
1 | 54.8 | O=C(NC1CCN(C(COc2ccc(F)c(Cl)c2)c2ccccc2)CC1)c1cnc(-c2cccc(F)c2)nc1 (stereo not shown) [Example 42, N-{1-[2-(3-Chloro-4-fluorophenoxy)-1-phenylethyl]piperidin-4-yl}-2-(3-fluorophenyl)pyrimidine-5-carboxamide]
2 | 0.483 | COc1cccc(OC)c1CN1CCC(NC(=O)c2cnc(-c3ccccc3)nc2)CC1 [Example 14, N-[1-(2,6-Dimethoxybenzyl)piperidin-4-yl]-2-phenylpyrimidine-5-carboxamide]
3 | ≥ 1000 | COc1cccc(OC)c1CN1CCC(NC(=O)c2cnc(-c3ccccc3)nc2O)CC1 [Example 23, N-[1-(2,6-Dimethoxybenzyl)piperidin-4-yl]-4-hydroxy-2-phenyl-pyrimidine-5-carboxamide]
4 | 6.43 | Cc1cc(CN2CCC(NC(=O)c3cnc(-c4cccc(F)c4)nc3)C2=O)ccc1F (stereo not shown) [Example 86, N-[1-(4-Fluoro-3-methylbenzyl)-2-oxopyrrolidin-3-yl]-2-(3-fluorophenyl)pyrimidine-5-carboxamide]
5 | 1010 | O=C(NC1CCN(CC(F)(F)F)CC1)c1cnc(-c2ccccc2CO)nc1 [Example 113, 2-[2-(Hydroxymethyl)phenyl]-N-[1-(2,2,2-trifluoroethyl)piperidin-4-yl]pyrimidine-5-carboxamide]
6 | 0.219 | O=C(NC1CCN(c2ncc3c(n2)CCOC3)C1)c1cnc(-c2cccc(F)c2)nc1 (stereo not shown) [Example 81, N-[1-(7,8-Dihydro-5H-pyrano[4,3-d]pyrimidin-2-yl)pyrrolidin-3-yl]-2-(3-fluorophenyl)pyrimidine-5-carboxamide]
7 | 6.26 | O=C(NC1CCN(C(COc2ccc(F)c(F)c2)c2ccccc2)CC1)c1cnc(-c2cccc(F)c2)nc1 (stereo not shown) [Example 49, N-{1-[2-(3,4-Difluorophenoxy)-1-phenylethyl]piperidin-4-yl}-2-(3-fluorophenyl)pyrimidine-5-carboxamide]
8 | 4.45 | N#Cc1ccc(OCC(c2ccccc2)N2CCC(NC(=O)c3cnc(-c4cccc(F)c4)nc3)CC2)cc1F (stereo not shown) [Example 28, N-{1-[2-(4-Cyano-3-fluorophenoxy)-1-phenylethyl]piperidin-4-yl}-2-(3-fluorophenyl)pyrimidine-5-carboxamide]
9 | 6.34 | CC(C)N1CCC(NC(=O)c2cnc(-c3ccccc3)nc2)CC1 [Example 13, N-(1-Isopropylpiperidin-4-yl)-2-phenyl-pyrimidine-5-carboxamide]
10 | 3.83 | N#Cc1ccccc1C(=O)c1cccnc1N1C[C@H](O)[C@H](NC(=O)c2cnc(-c3cccc(F)c3)nc2)C1 (relative stereo) [Example 97, Cis-N-{1-[3-(2-Cyanobenzoyl)pyridin-2-yl]-4-hydroxypyrrolidin-3-yl}-2-(3-fluorophenyl)pyrimidine-5-carboxamide]
